Laboratory results from patent publication US9518004B2, “Reduced coenzyme Q10 derivative and method for production thereof” (KANEKA CORPORATION, priority 2012, dated 2016).

Assay: Oral absorbability in rats: overall coenzyme Q10 concentration in plasma by HPLC after oral administration (AUC)
Design: species or system Spregue-Dawley rats
Conditions: rat, in vivo, 57.8 umol/kg
Method: (§1) To seven-weeks old male Spregue-Dawley rats (obtained from Japan SLC, Inc.) were orally administered the derivatives of reduced coenzyme Q10 obtained in Examples 3, 4 and 5 and the starting reduced coenzyme Q10 as control each in 57.8 μmol/kg (50 mg/kg in terms of reduced coenzyme Q10). Blood was extracted from each rat after 1, 2, 4, 8 and 24 hours after administration of each sample. Each extracted blood was centrifuged, so that plasma was obtained. Then, oxidation treatment of reduced coenzyme Q10 in the plasma and extraction treatment of oxidized coenzyme Q10 were performed, and then the overall coenzyme Q10 concentration in the plasma was measured as oxidized coenzyme Q10 by using HPLC.
as §1, with “derivative” for “derivatives”, “Referential Example 1” for “Examples 3, 4 and 5”

For `COc1c(OC(C)=O)c(C)c(CC=C(C)CCC=C(C)CCC=C(C)CCC=C(C)CCC=C(C)CCC=C(C)CCC=C(C)CCC=C(C)CCC=C(C)CCC=C(C)C)c(OC(C)=O)c1OC` [Bisacetyl derivative, Bisacetyl Derivative], the “AUC (area under the blood concentration-time curve) as compared with reduced coenzyme Q10, in words” value was “lower”.
